Tests used:
Assay in all cases: relative viability (nuclei count vs DMSO), 5 days (fraction); higher = more cells survive
NCI-H358 = system: NCI-H358
Procedure, shortened: (§1)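 Relative viability was taken as the ratio of nuclei in treated wells to nuclei in vehicle wells. Lung cancer cell lines in 1536-well plates received compounds by pin tool one day after seeding, either one drug alone or a fixed anchor-drug dose plus five library-drug doses (not always all listed) in √10 steps. Nuclei were counted on 4× images after 5 days of treatment, and values are medians of duplicate plates.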

NCI-H838 = system: NCI-H838
Procedure, shortened: as §1

COR-L23 = system: COR-L23
Procedure, shortened: as §1

NCI-H2126 = system: NCI-H2126
Procedure, shortened: as §1

LC-2-ad = system: LC-2-ad
Procedure, shortened: as §1

NCI-H1793 = system: NCI-H1793
Procedure, shortened: as §1

HARA = system: HARA
Procedure, shortened: as §1

NCI-H1993 = system: NCI-H1993
Procedure, shortened: as §1

NCI-H1395 = system: NCI-H1395
Procedure, shortened: as §1

SK-LU-1 = system: SK-LU-1
Procedure, shortened: as §1

HCC-15 = system: HCC-15
Procedure, shortened: as §1

NCI-H1944 = system: NCI-H1944
Procedure, shortened: as §1

NCI-H2228 = system: NCI-H2228
Procedure, shortened: as §1

NCI-H23 = system: NCI-H23
Procedure, shortened: as §1

NCI-H2023 = system: NCI-H2023
Procedure, shortened: as §1

ABC-1 = system: ABC-1
Procedure, shortened: as §1

HCC-366 = system: HCC-366
Procedure, shortened: as §1

NCI-H2405 = system: NCI-H2405
Procedure, shortened: as §1

HOP-62 = system: HOP-62
Procedure, shortened: as §1

HCC-78 = system: HCC-78
Procedure, shortened: as §1

EMC-BAC-2 = system: EMC-BAC-2
Procedure, shortened: as §1

COc1cc2nccc(Oc3ccc(NC(=O)Nc4cc(C)on4)c(Cl)c3)c2cc1OC [Tivozanib] + C[C@]1(O)C[C@@H](c2nc(-c3ccc4ccc(-c5ccccc5)nc4c3)c3c(N)nccn32)C1 [Linsitinib] (partner 1 µM)
relative viability (NCI-H358; first compound 0.005 µM): 0.765 | relative viability (NCI-H358; first compound 0.01581 µM): 0.849 | relative viability (NCI-H358; first compound 0.05 µM): 0.718 | relative viability (NCI-H358; first compound 0.1581 µM): 0.695 | relative viability (NCI-H358; first compound 0.5 µM): 0.782 | relative viability (NCI-H838; first compound 0.005 µM): 0.963 | relative viability (NCI-H838; first compound 0.01581 µM): 1.04 | relative viability (NCI-H838; first compound 0.05 µM): 1.11 | relative viability (NCI-H838; first compound 0.5 µM): 0.942 | relative viability (COR-L23; first compound 0.005 µM): 0.848 | relative viability (COR-L23; first compound 0.01581 µM): 0.886 | relative viability (COR-L23; first compound 0.05 µM): 0.994 | relative viability (COR-L23; first compound 0.1581 µM): 0.887 | relative viability (COR-L23; first compound 0.5 µM): 0.819 | relative viability (NCI-H2126; first compound 0.005 µM): 0.651 | relative viability (NCI-H2126; first compound 0.01581 µM): 0.697 | relative viability (NCI-H2126; first compound 0.05 µM): 0.734 | relative viability (NCI-H2126; first compound 0.1581 µM): 0.52 | relative viability (NCI-H2126; first compound 0.5 µM): 0.747 | relative viability (LC-2-ad; first compound 0.005 µM): 0.86 | relative viability (LC-2-ad; first compound 0.01581 µM): 0.791 | relative viability (LC-2-ad; first compound 0.05 µM): 0.73 | relative viability (LC-2-ad; first compound 0.1581 µM): 0.526 | relative viability (LC-2-ad; first compound 0.5 µM): 0.616 | relative viability (NCI-H1793; first compound 0.005 µM): 0.778 | relative viability (NCI-H1793; first compound 0.01581 µM): 0.954 | relative viability (NCI-H1793; first compound 0.05 µM): 0.774 | relative viability (NCI-H1793; first compound 0.5 µM): 1.19 | relative viability (HARA; first compound 0.005 µM): 0.915 | relative viability (HARA; first compound 0.01581 µM): 0.838 | relative viability (HARA; first compound 0.05 µM): 1.11 | relative viability (HARA; first compound 0.1581 µM): 1.01 | relative viability (HARA; first compound 0.5 µM): 0.99 | relative viability (NCI-H1993; first compound 0.005 µM): 0.698 | relative viability (NCI-H1993; first compound 0.01581 µM): 0.777 | relative viability (NCI-H1993; first compound 0.05 µM): 0.79 | relative viability (NCI-H1993; first compound 0.1581 µM): 0.638 | relative viability (NCI-H1993; first compound 0.5 µM): 0.758 | relative viability (NCI-H1395; first compound 0.005 µM): 0.99 | relative viability (NCI-H1395; first compound 0.01581 µM): 1.1 | relative viability (NCI-H1395; first compound 0.05 µM): 1.26 | relative viability (NCI-H1395; first compound 0.1581 µM): 1.09 | relative viability (NCI-H1395; first compound 0.5 µM): 0.827 | relative viability (SK-LU-1; first compound 0.005 µM): 0.979 | relative viability (SK-LU-1; first compound 0.01581 µM): 1.08 | relative viability (SK-LU-1; first compound 0.05 µM): 1.34 | relative viability (SK-LU-1; first compound 0.1581 µM): 0.813 | relative viability (SK-LU-1; first compound 0.5 µM): 0.938 | relative viability (HCC-15; first compound 0.005 µM): 0.9 | relative viability (HCC-15; first compound 0.01581 µM): 0.878 | relative viability (HCC-15; first compound 0.05 µM): 0.9 | relative viability (HCC-15; first compound 0.1581 µM): 0.875 | relative viability (HCC-15; first compound 0.5 µM): 0.897 | relative viability (NCI-H1944; first compound 0.005 µM): 1.14 | relative viability (NCI-H1944; first compound 0.01581 µM): 1.2 | relative viability (NCI-H1944; first compound 0.05 µM): 1.29 | relative viability (NCI-H1944; first compound 0.1581 µM): 1.1 | relative viability (NCI-H1944; first compound 0.5 µM): 1.21 | relative viability (NCI-H2228; first compound 0.005 µM): 0.504 | relative viability (NCI-H2228; first compound 0.01581 µM): 0.683 | relative viability (NCI-H2228; first compound 0.05 µM): 0.697 | relative viability (NCI-H2228; first compound 0.1581 µM): 0.569 | relative viability (NCI-H2228; first compound 0.5 µM): 0.868 | relative viability (NCI-H23; first compound 0.005 µM): 0.521 | relative viability (NCI-H23; first compound 0.01581 µM): 0.534 | relative viability (NCI-H23; first compound 0.05 µM): 0.64 | relative viability (NCI-H23; first compound 0.1581 µM): 0.317 | relative viability (NCI-H23; first compound 0.5 µM): 0.534 | relative viability (NCI-H2023; first compound 0.005 µM): 0.612 | relative viability (NCI-H2023; first compound 0.01581 µM): 0.669 | relative viability (NCI-H2023; first compound 0.05 µM): 0.761 | relative viability (NCI-H2023; first compound 0.1581 µM): 0.671 | relative viability (NCI-H2023; first compound 0.5 µM): 0.715 | relative viability (ABC-1; first compound 0.005 µM): 0.716 | relative viability (ABC-1; first compound 0.01581 µM): 0.887 | relative viability (ABC-1; first compound 0.05 µM): 0.676 | relative viability (ABC-1; first compound 0.1581 µM): 0.745 | relative viability (ABC-1; first compound 0.5 µM): 0.783 | relative viability (HCC-366; first compound 0.005 µM): 0.475 | relative viability (HCC-366; first compound 0.01581 µM): 0.57 | relative viability (HCC-366; first compound 0.05 µM): 0.712 | relative viability (HCC-366; first compound 0.1581 µM): 0.516 | relative viability (HCC-366; first compound 0.5 µM): 0.606 | relative viability (NCI-H2405; first compound 0.005 µM): 0.945 | relative viability (NCI-H2405; first compound 0.01581 µM): 0.996 | relative viability (NCI-H2405; first compound 0.05 µM): 0.943 | relative viability (NCI-H2405; first compound 0.1581 µM): 0.89 | relative viability (NCI-H2405; first compound 0.5 µM): 0.897 | relative viability (HOP-62; first compound 0.005 µM): 0.87 | relative viability (HOP-62; first compound 0.01581 µM): 0.929 | relative viability (HOP-62; first compound 0.05 µM): 1.16 | relative viability (HOP-62; first compound 0.1581 µM): 0.932 | relative viability (HOP-62; first compound 0.5 µM): 0.988 | relative viability (HCC-78; first compound 0.005 µM): 0.53 | relative viability (HCC-78; first compound 0.01581 µM): 0.492 | relative viability (HCC-78; first compound 0.05 µM): 0.437 | relative viability (HCC-78; first compound 0.1581 µM): 0.415 | relative viability (HCC-78; first compound 0.5 µM): 0.451 | relative viability (EMC-BAC-2; first compound 0.005 µM): 0.847 | relative viability (EMC-BAC-2; first compound 0.01581 µM): 0.787 | relative viability (EMC-BAC-2; first compound 0.05 µM): 0.844 | relative viability (EMC-BAC-2; first compound 0.1581 µM): 0.782 | relative viability (EMC-BAC-2; first compound 0.5 µM): 0.821
